Results taken from US20240352000A1, “NOVEL PYRIMIDINE-2,4-DIAMINE DERIVATIVES, PREPARATION METHOD THEREFOR, AND PHARMACEUTICAL COMPOSITION CONTAINING SAME AS ACTIVE INGREDIENT FOR PREVENTION OR TREATMENT OF CANCER” (KOREA RESEARCH INSTITUTE OF CHEMICAL TECHNOLOGY, priority 2021, published 2024).

Key:
[1] = tested on: Ba/F3 EGFR del19; test: CellTiter-Glo cell viability, Ba/F3 EGFR del19; format: cell-based; conditions: 72 hours
Description: (§1) An experiment to measure the activity of the compounds of the present invention against the mutant Ba/F3 EGFR cell line was performed as follows using the CellTiter-Glo system sold by Promega. The CellTiter-Glo assay is a method to confirm the cell viability by measuring ATP present in cells in cell culture. For the Ba/F3 EGFR del19, Ba/F3 EGFR del19/T790M, Ba/F3 del19/T790M/C797S mutant cell line, a cell line provided by Crown Bioscience was purchased and used. The Ba/F3 EGFR del19, Ba/F3 EGFR del19/T790M, Ba/F3 del19/T790M/C797S mutant cell line was cultured in RPMI containing 10% FBS and 1% penicillin-streptomycin with 1 μg of puromycin in an incubator at 37° C. and 5% CO2.
(§2) Analysis of the inhibitory ability effect of the compounds against EGFR was conducted according to the following analysis reaction recipe.
(§3) 2500 cells/90 μL were passaged and cultured in a 96-well cell culture plate, and after 24 hours, treated with the compound represented by Formula 1 at a concentration of 0, 0.01, 0.03, 0.1, 0.3, 1, 3, and 10 (μM). After reaction for 72 hours, the plate treated with the compound was left at room temperature for 30 minutes, then further treated with 100 μl of reagent, and shaken at room temperature for 10 minutes. Finally, the ratio of fluorescence values at 570 nm was obtained using the equipment to quantitatively measure and confirmed the inhibitory ability of the compounds. The measurement values measured at eight compound concentrations were analyzed using the Prism program (version 5.01, Graphpad Software, Inc.), and the IC50 value, which is an indicator of the inhibitory ability of the compound, was calculated.

[2] = tested on: Ba/F3 EGFR V769_D770insASV; test: CellTiter-Glo cell growth, Ba/F3 EGFR Ex20 insertion mutant; format: cell-based; conditions: 72 hours
Description: as §1, with “the” for “the mutant”, “EGFR V769_D770insASV mutant” for “EGFR”, “EGFR V769_D770insASV” for “EGFR del19, Ba/F3 EGFR del19/T790M, Ba/F3 del19/T790M/C797S”, “1 μg/ml” for “1 μg”
Analysis of the inhibitory ability effect of the compounds against the EGFR mutant cell growth was conducted according to the following analysis reaction recipe.
as §3, with “1000 cells/100 μL were” for “2500 cells/90 μL were”, “[…]. After reaction” for “and 10 (μM). After reaction”, “with 100 μL of reagent,” for “with 100 μl of reagent,”, “confirmed the cell growth inhibitory ability” for “confirmed the inhibitory ability”, “of the cell growth inhibitory ability” for “of the inhibitory ability”

[3] = biological target: HER2 A775_G776insYVMA (Homo sapiens (Human), UniProt P04626, INS775YVMA); test: HTRF enzyme assay, HER2 mutant enzyme; format: biochemical; conditions: recombinant enzyme, 37° C. 2 hours
HER2 A775_G776insYVMA, sequence (P04626 other isoform, or with tags, fused parts or gaps del 1-675/ins YVMA behind 775 limits assumed): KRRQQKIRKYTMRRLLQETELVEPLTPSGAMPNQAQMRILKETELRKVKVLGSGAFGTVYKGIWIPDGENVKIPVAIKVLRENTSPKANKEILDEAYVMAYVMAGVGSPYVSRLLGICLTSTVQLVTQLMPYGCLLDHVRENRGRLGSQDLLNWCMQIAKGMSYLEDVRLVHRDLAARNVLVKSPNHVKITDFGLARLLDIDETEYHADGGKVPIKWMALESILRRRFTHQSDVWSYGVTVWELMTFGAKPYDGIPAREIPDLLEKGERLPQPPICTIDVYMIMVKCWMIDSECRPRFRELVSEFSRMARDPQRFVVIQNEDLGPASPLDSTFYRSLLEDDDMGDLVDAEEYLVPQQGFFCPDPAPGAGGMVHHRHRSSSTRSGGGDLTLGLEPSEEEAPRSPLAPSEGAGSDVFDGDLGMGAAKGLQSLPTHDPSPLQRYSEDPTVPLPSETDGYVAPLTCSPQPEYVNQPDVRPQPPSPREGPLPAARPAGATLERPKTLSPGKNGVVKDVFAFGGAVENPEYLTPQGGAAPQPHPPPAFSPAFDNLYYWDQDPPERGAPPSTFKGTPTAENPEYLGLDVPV
Description: An experiment to measure the activity of the compounds of the present invention against HER mutant enzymes was performed as follows using the HTRF system sold by Cisbio. For the HER2 mutant enzyme, HER2 A775_G776insYVMA mutant enzyme, a recombinant protein provided by Carna Biosciences was purchased and used.
The composition of the assay buffer used for measuring the activity was 50 mM Tris-HCl pH 7.5, 100 mM NaCl, 7.5 mM MgCl2, 3 mM KCl, 0.01% Tween 20, 0.1% BSA, and 1 mM DTT. Here, an enzyme reaction was performed using with ATP at a concentration of […] and a peptide substrate labeled biotin at a concentration of […]. Analysis of the inhibitory effect of the compounds against the HER2 A775_G776insYVMA mutant activity was conducted according to the following analysis reaction recipe. • Component 1: 4 μL of a HER2 A775_G776insYVMA mutant enzyme • Component 2: 2 μL of a compound solution • Component 3: 4 μL of ATP and a peptide labeled with biotin
The enzyme reaction was started by first mixing Component 1 and Component 2 and then adding Component 3. After reaction at 37° C. for 2 hours, […] of measurement solution consisting of streptavidin-XL665 and europium-labeled anti-phosphotyrosine antibody provided by Cisbio was added to the enzyme reaction solution and reacted at room temperature for 1 hour. Finally, the ratio of fluorescence values at 615 nm and 665 nm was obtained using the Envision equipment from Perkin-Elmer to quantitatively measure the enzyme activity and confirmed the inhibitory ability of the compounds. The measurement values measured at seven compound concentrations were analyzed using the Prism program (version 5.01, Graphpad Software, Inc.), and the IC50 value, which is an indicator of the inhibitory ability of the compound, was calculated.

[4] = tested on: Ba/F3 EGFR L858R/T790M/C797S; test: CellTiter-Glo cell viability, Ba/F3 EGFR L858R/T790M/C797S; format: cell-based; conditions: 72 hours
Description: An experiment to measure the activity of the compounds of the present invention against the mutant Ba/F3 EGFR cell line was performed as follows using the CellTiter-Glo system sold by Promega. The CellTiter-Glo assay is a method to confirm the cell viability by measuring ATP present in cells in cell culture. The Ba/F3 EGFR L858R, Ba/F3 EGFR L858R/T790M, Ba/F3 EGFR L858R/T790M/C797S mutant cell line was used. The Ba/F3 EGFR L858R, Ba/F3 EGFR L858R/T790M, and Ba/F3 EGFR L858R/T790M/C797S mutant cell lines was cultured in RPMI containing 10% FBS and 1% penicillin-streptomycin with 1 μg of puromycin in an incubator at 37° C. and 5% CO2.
as §2
as §3, with “μl” for “μL”

| IC50 [1] | IC50 [2] | IC50 [3] | IC50 [4] | Structure (SMILES) |
| --- | --- | --- | --- | --- |
| < 30 nM | 360 nM | 3 nM | – | COc1cc(N2CCC(N3CCN(C)CC3)CC2)ccc1Nc1ncc(Cl)c(Nc2cccc3c2N(S(C)(=O)=O)CCC3)n1 [Example 5, 5-chloro-N2-(2-methoxy-4-(4-(4-methylpiperazin-1-yl)piperidin-1-yl)phenyl)-N4-(1-(methylsulfonyl)-1,2,3,4-tetrahydroquinolin-8-yl)pyrimidine-2,4-diamine] |
| < 30 nM | 210 nM | 1 nM | < 100 nM | COc1cc(N2CCC(N3CCN(C)CC3)CC2)ccc1Nc1ncc(Cl)c(Nc2cccc3c2N(S(C)(=O)=O)CC3)n1 [Example 2, 5-chloro-N2-(2-methoxy-4-(4-(4-methylpiperazin-1-yl)piperidin-1-yl)phenyl)-N4-(1-(methylsulfonyl)indolin-7-yl)pyrimidine-2,4-diamine] |
